Reference: patent US11053250B2, “Pyrrolo[1,2-b]pyridazine derivatives” (Gilead Sciences, Inc., priority 2018, dated 2021)

Tests used:
TNFα = assay: IRAK4 Monocyte TNFα Cell Based Assay; conditions: cryopreserved human monocytes, LPS 50 pg/ml stimulation, TNFα by TR-FRET
Procedure: The cell suspension was then plated at a density of 5,000 cells/well onto black 384 well Greiner clear bottom plates. Plates were pre-spotted with test compounds and serially diluted in DMSO where 40 nL/well were delivered using the Echo 550 acoustic liquid dispenser (Labcyte®) for a final DMSO concentration of 0.1%. Plated cells were treated with compound for 1 hour at 37° C. Cells were then stimulated with 50 pg/ml of LPS (Sigma) excluding outside columns of plate used for unstimulated cell control wells. Cells were incubated for an additional 4 hours at 37° C. Cells were then spun out of the media and 5 μl of sample were taken and analyzed for total TNFα content using the TR-FRET Human TNFα detection system (CisBio). This system utilizes two labeled antibodies (cryptate and XL665) that bind to two different epitopes of the TNFα molecule and produce FRET signal proportional to the concentration of TNFα in the sample. Detection antibodies are mixed 50:50 and 5 μL were dispensed into each well. Plates were covered with clear seals and incubated at room temp overnight. The following morning plates were read using an Envision 2103 Multilabeled reader (PerkinElmer) with excitation/emission/FRET emission at 340 nm/615 nm/665 nm, respectively. Fluorescence intensities at 615 nm and 665 nm emission wavelengths were expressed as a ratio (665 nm/615 nm). Percent of control was calculated as follows: % Control=100×(RatioSample−Ratio0% stimulation)/(Ratio100% Stimulation−Ratio0% stimulation) where unstimulated cells (0% stimulation) were the negative control and stimulated cells (100% stimulation) were used as the positive control.

IRAK4 enzyme = IRAK4 enzyme (Homo sapiens (Human), UniProt Q9NWZ3); assay: IRAK4 Biochemical Assay (TR-FRET/HTRF); conditions: 0.75 nM IRAK4, 500 μM ATP, STK1 peptide
Sequence of IRAK4 enzyme (Q9NWZ3 whole entry): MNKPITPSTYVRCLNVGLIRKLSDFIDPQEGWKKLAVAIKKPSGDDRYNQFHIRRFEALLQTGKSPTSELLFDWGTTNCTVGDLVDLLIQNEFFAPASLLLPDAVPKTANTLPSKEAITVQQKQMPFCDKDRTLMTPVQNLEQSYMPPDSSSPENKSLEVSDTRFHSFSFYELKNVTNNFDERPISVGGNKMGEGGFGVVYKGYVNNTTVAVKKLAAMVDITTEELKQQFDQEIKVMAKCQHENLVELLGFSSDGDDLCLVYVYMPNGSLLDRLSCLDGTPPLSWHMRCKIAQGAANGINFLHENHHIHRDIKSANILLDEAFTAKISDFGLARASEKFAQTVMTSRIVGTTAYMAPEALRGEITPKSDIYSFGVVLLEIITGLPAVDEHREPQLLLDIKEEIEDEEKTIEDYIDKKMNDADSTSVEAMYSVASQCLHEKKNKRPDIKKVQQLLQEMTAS
Procedure: IRAK4 enzyme (Carna Biosciences, Chuo-ku, Kobe, Japan) activity was measured by detecting phosphorylated peptide substrate formation using an antibody against the phosphorylated peptide substrate. This is a time-resolved fluorescence resonance energy transfer (TR-FRET) immunoassay, based on the STK1 KinEASE Assay (Cisbio, Bedford, Mass.). The assay was designed as a simple two-step, endpoint assay (a 5 μl enzyme reaction followed by 5 μl stop and detect Solution) performed in ProxiPlate-384 Plus plates (Perkin Elmer, Waltham, Mass.). Staurosporine, a non-selective kinase inhibitor was used as a positive control. Compounds diluted in DMSO were spotted into 384 well plates using a Labcyte® Echo 550 Liquid Handling System prior to addition of IRAK4 enzyme and peptide substrate. Reaction solutions were delivered using a Multi-Flo (Bio-Tek Instruments). The enzyme and peptide solution was incubated with compound for 15 minutes at room temp before the reaction was initiated by the addition of ATP. The standard 5 μl reaction mixture contained 500 μM ATP, 2 μM peptide (STK1 Peptide), 0.75 nM of IRAK4 in reaction buffer (50 mM HEPES, pH 7.0, 0.02% NaN3, 0.01% BSA, 0.1 mM Orthovanadate, 5 mM MgCl2, 0.025% NP-40, 1 mM DTT). After 120 min of incubation at room temperature, 5 μl of Stop and Detect Solution (1:100 Cryptate labeled anti-phosphorylated peptide antibody solution and 125 nM Tracer in a 50 mM HEPES pH 7.0 detection buffer containing sufficient EDTA) was added. The plate was then further incubated for 60 minutes at room temperature and read on Envision 2103 Multilabeled reader (PerkinElmer) with excitation/emission/FRET emission at 340 nm/615 nm/665 nm, respectively. Fluorescence intensities at 615 nm and 665 nm emission wavelengths were expressed as a ratio (665 nm/615 nm). Percentage of inhibition was calculated as below: % Inhibition=100×(RatioSample−Ratio0% Inhibition)/(Ratio100% Inhibition−Ratio0% Inhibition)
The 0% inhibition value comes from control wells lacking inhibitor. The 100% inhibition value comes from control wells containing a saturating amount of known inhibitor staurosporine.

EC50 (TNFα; Monocyte) [nM]	IC50 (IRAK4 enzyme) [nM]	EC50 (TNFα) [nM]	SMILES
184	2		CC(C)Nc1cc(-c2ccc3cc(C#N)cnn23)ncc1-n1cc(C2CCOCC2)nn1 [Compound 60, 7-(4-(isopropylamino)-5-(4-(tetrahydro-2H-pyran-4-yl)-1H-1,2,3-triazol-1-yl)pyridin-2-yl)pyrrolo[1,2-b]pyridazine-3-carbonitrile]
	1	20	COC(=O)NCC1CC(Nc2cc(-c3ccc4cc(C#N)cnn34)ncc2-c2cn(C3CC(CNC(=O)OC)C3)nn2)C1 [Compound 10, methyl (((1R,3r)-3-((2-(3-cyanopyrrolo[1,2-b]pyridazin-7-yl)-5-(1-((1r,3R)-3-(((methoxycarbonyl)amino)methyl)cyclobutyl)-1H-1,2,3-triazol-4-yl)pyridin-4-yl)amino)cyclobutyl)methyl)carbamate]
9	< 1		Cn1cc(-c2cnc(-c3ccc4cc(C#N)cnn34)cc2NC23CCC(O)(CC2)CC3)nn1 [Compound 21, 7-(4-((4-hydroxybicyclo[2.2.2]octan-1-yl)amino)-5-(1-methyl-1H-1,2,3-triazol-4-yl)pyridin-2-yl)pyrrolo[1,2-b]pyridazine-3-carbonitrile]
70	1		CC(C)Nc1cc(-c2ccc3cc(C#N)cnn23)ncc1-c1cn(C2CCN(S(C)(=O)=O)CC2)nn1 [Compound 41, 7-(4-(isopropylamino)-5-(1-(1-(methylsulfonyl)piperidin-4-yl)-1H-1,2,3-triazol-4-yl)pyridin-2-yl)pyrrolo[1,2-b]pyridazine-3-carbonitrile]
	< 1	19	COC(=O)NCC1CC(Nc2cc(-c3ccc4cc(C#N)cnn34)ncc2-c2cn(CC3CC(O)C3)nn2)C1 [Compound 6, methyl (((1R,3r)-3-((2-(3-cyanopyrrolo[1,2-b]pyridazin-7-yl)-5-(1-(((1r,3R)-3-hydroxycyclobutyl)methyl)-1H-1,2,3-triazol-4-yl)pyridin-4-yl)amino)cyclobutyl)methyl)carbamate]
125	2		COCCn1cc(-c2cnc(-c3ccc4cc(C#N)cnn34)cc2NC(C)C)nn1 [Compound 48, 7-(4-(isopropylamino)-5-(1-(2-methoxyethyl)-1H-1,2,3-triazol-4-yl)pyridin-2-yl)pyrrolo[1,2-b]pyridazine-3-carbonitrile]
33	< 1		CC(C)Nc1cc(-c2ccc3cc(C#N)cnn23)ncc1-c1cn(CCN2CCOCC2)nn1 [Compound 47, 7-(4-(isopropylamino)-5-(1-(2-morpholinoethyl)-1H-1,2,3-triazol-4-yl)pyridin-2-yl)pyrrolo[1,2-b]pyridazine-3-carbonitrile]
95	3		CC(C)Nc1cc(-c2ccc3cc(C#N)cnn23)ncc1-c1cn(-c2cccnc2)nn1 [Compound 52, 7-(4-(isopropylamino)-5-(1-(pyridin-3-yl)-1H-1,2,3-triazol-4-yl)pyridin-2-yl)pyrrolo[1,2-b]pyridazine-3-carbonitrile]
238	4		CC(C)Nc1cc(-c2ccc3cc(C#N)cnn23)ncc1-c1cn(CC(C)(C)O)nn1 [Compound 50, 7-(5-(1-(2-hydroxy-2-methylpropyl)-1H-1,2,3-triazol-4-yl)-4-(isopropylamino)pyridin-2-yl)pyrrolo[1,2-b]pyridazine-3-carbonitrile]
	2	20	CC(C)(O)[C@H](F)Cn1cc(-c2cnc(-c3ccc4cc(C#N)cnn34)cc2N[C@H]2CC[C@H](c3nnc(C(F)F)o3)CC2)nn1 [Compound 3, 7-(4-(((1r,4R)-4-(5-(difluoromethyl)-1,3,4-oxadiazol-2-yl)cyclohexyl)amino)-5-(1-((R)-2-fluoro-3-hydroxy-3-methylbutyl)-1H-1,2,3-triazol-4-yl)pyridin-2-yl)pyrrolo[1,2-b]pyridazine-3-carbonitrile]
	< 1	38	COC(=O)NC[C@H]1C[C@H](Nc2cc(-c3ccc4cc(C#N)cnn34)ncc2-c2cn(CC(F)F)nn2)C1 [Compound 32, methyl (((1r,3r)-3-((2-(3-cyanopyrrolo[1,2-b]pyridazin-7-yl)-5-(1-(2,2-difluoroethyl)-1H-1,2,3-triazol-4-yl)pyridin-4-yl)amino)cyclobutyl)methyl)carbamate]
15	1		CC(C)(O)[C@H](F)Cn1cc(-c2cnc(-c3ccc4cc(C#N)cnn34)cc2NCC#N)nn1 [Compound 2, (R)-7-(4-((cyanomethyl)amino)-5-(1-(2-fluoro-3-hydroxy-3-methylbutyl)-1H-1,2,3-triazol-4-yl)pyridin-2-yl)pyrrolo[1,2-b]pyridazine-3-carbonitrile]
42	< 1		COC(=O)Cn1cc(-c2cnc(-c3ccc4cc(C#N)cnn34)cc2NC(C)C)nn1 [Compound 56, methyl 2-(4-(6-(3-cyanopyrrolo[1,2-b]pyridazin-7-yl)-4-(isopropylamino)pyridin-3-yl)-1H-1,2,3-triazol-1-yl)acetate]
162	2		CC(C)Nc1cc(-c2ccc3cc(C#N)cnn23)ncc1-c1cn(C)nn1 [Compound 55, 7-(4-(isopropylamino)-5-(1-methyl-1H-1,2,3-triazol-4-yl)pyridin-2-yl)pyrrolo[1,2-b]pyridazine-3-carbonitrile]
	< 1	44	COC(=O)NC[C@H]1C[C@H](Nc2cc(-c3ccc4cc(C#N)cnn34)ncc2-c2cn(C)nn2)C1 [Compound 33, methyl (((1r,3r)-3-((2-(3-cyanopyrrolo[1,2-b]pyridazin-7-yl)-5-(1-methyl-1H-1,2,3-triazol-4-yl)pyridin-4-yl)amino)cyclobutyl)methyl)carbamate]
338	9		CNc1cc(-c2ccc3cc(C#N)cnn23)ncc1-c1cn(CC(F)F)nn1 [Compound 27, 7-(5-(1-(2,2-difluoroethyl)-1H-1,2,3-triazol-4-yl)-4-(methylamino)pyridin-2-yl)pyrrolo[1,2-b]pyridazine-3-carbonitrile]
1120	14		CC(C)Nc1cc(-c2ccc3cc(C#N)cnn23)ncc1-c1cn(C23CC(C2)C3)nn1 [Compound 57, 7-(5-(1-(bicyclo[1.1.1]pentan-1-yl)-1H-1,2,3-triazol-4-yl)-4-(isopropylamino)pyridin-2-yl)pyrrolo[1,2-b]pyridazine-3-carbonitrile]
	3	18	CC(C)(O)[C@H](F)Cn1cc(-c2cnc(-c3ccc4cc(C#N)cnn34)cc2N[C@H]2CC[C@H](c3cnn(C(F)F)c3)CC2)nn1 [Compound 15, 7-(4-(((1r,4R)-4-(1-(difluoromethyl)-1H-pyrazol-4-yl)cyclohexyl)amino)-5-(1-((R)-2-fluoro-3-hydroxy-3-methylbutyl)-1H-1,2,3-triazol-4-yl)pyridin-2-yl)pyrrolo[1,2-b]pyridazine-3-carbonitrile]
324	14		CNc1cc(-c2ccc3cc(C#N)cnn23)ncc1-c1cn(C)nn1 [Compound 36, 7-(5-(1-methyl-1H-1,2,3-triazol-4-yl)-4-(methylamino)pyridin-2-yl)pyrrolo[1,2-b]pyridazine-3-carbonitrile]
132	< 1		CC(C)Nc1cc(-c2ccc3cc(C#N)cnn23)ncc1-c1cn(C(C)C)nn1 [Compound 51, 7-(5-(1-isopropyl-1H-1,2,3-triazol-4-yl)-4-(isopropylamino)pyridin-2-yl)pyrrolo[1,2-b]pyridazine-3-carbonitrile]
